Data from patent US12171755B2, “PAPD5 inhibitors and methods of use thereof” (Children's Medical Center Corporation, priority 2017, dated 2024).

Biological target: T1, PAPD5 (Homo sapiens, UniProt Q8NDF8)
T1 construct: made in house
Experiment: High-throughput luminescence (KinaseGlo) RNA polyadenylation assay, ATP utilization by recombinant PAPD5
Type: biochemical
Conditions: Table 4 (entries of Table 5), ratio of luminescence with inhibitor to DMSO; for Fold-change determined at compound concentration 33 μM: 33 μM compound; for Fold-change determined at compound concentration 100 μM: 100 μM compound, higher = higher inhibition
Procedure, shortened: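 Recombinant PAPD5 polyadenylates an oligonucleotide substrate using ATP, and remaining ATP is read by KinaseGlo luciferase luminescence. Compound was incubated for 2 h at room temperature, then with luciferase for 10 min.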

T1 sequence (Q8NDF8 68-698 isoform Q8NDF8-5): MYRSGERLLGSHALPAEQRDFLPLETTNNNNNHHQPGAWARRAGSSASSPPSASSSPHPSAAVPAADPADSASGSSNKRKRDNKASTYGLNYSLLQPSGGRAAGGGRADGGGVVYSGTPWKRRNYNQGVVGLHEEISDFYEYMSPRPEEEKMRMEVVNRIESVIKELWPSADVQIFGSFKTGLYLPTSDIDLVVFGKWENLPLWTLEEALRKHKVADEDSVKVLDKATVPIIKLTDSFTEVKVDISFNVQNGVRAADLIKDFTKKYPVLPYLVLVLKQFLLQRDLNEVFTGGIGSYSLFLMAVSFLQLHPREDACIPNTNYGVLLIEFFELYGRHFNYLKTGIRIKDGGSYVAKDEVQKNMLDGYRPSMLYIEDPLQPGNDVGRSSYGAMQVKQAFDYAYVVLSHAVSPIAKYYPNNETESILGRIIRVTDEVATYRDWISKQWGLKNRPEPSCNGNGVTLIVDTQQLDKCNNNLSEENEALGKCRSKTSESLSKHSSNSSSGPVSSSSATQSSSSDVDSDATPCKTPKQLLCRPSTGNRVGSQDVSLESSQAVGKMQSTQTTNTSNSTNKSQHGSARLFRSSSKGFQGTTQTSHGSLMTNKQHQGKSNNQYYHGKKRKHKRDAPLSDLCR

Row | Compound | Fold-change determined at compound concentration 33 μM | Fold-change determined at compound concentration 100 μM
1 | O=S(=O)(NC1=NC2=NC(c3ccccc3)=CC(c3ccc(F)cc3)N2N1)c1ccc(Cl)cc1 (stereo not drawn) [Entry 157, 4-chloro-N-[7-(4-fluorophenyl)-5-phenyl-1,7-dihydro-[1,2,4]triazolo[1,5-a]pyrimidin-2-yl]benzenesulfonamide] | 1.059 | 1.203
2 | CCc1nc2[nH]c(-c3ccc(C)cc3)cc(=O)n2n1 [Entry 158, 2-ethyl-5-(4-methylphenyl)[1,2,4]triazolo[1,5-a]pyrimidin-7(4H)-one] | 1.13 | 1.364
3 | Cc1ccc(S(=O)(=O)NC2=NC3=NC(c4ccccc4)=CC(c4ccc(Cl)cc4)N3N2)cc1 (stereo not drawn) [Entry 159, N-[7-(4-chlorophenyl)-5-phenyl-1,7-dihydro-[1,2,4]triazolo[1,5-a]pyrimidin-2-yl]-4-methylbenzenesulfonamide] | 1.12 | 1.22
4 | c1cc(OCCN2CCCCC2)cc(-c2n[nH]c3ccc(-c4ncn[nH]4)cc23)c1 [Entry 160, 3-[3-(2-piperidin-1-ylethoxy)phenyl]-5-(1H-1,2,4-triazol-5-yl)-1H-indazole] | 1.075 | 1.239
5 | O=c1nc(SCc2ccc(F)cc2)[nH]c2nc[nH]c12 [Entry 162, 2-[(4-fluorophenyl)methylsulfanyl]-3,7-dihydropurin-6-one] | 1.153 | 1.431
6 | Cc1ccccc1CSc1nc(=O)c2[nH]cnc2[nH]1 [Entry 163, 2-[(2-methylphenyl)methylsulfanyl]-3,7-dihydropurin-6-one] | 1.109 | 1.287
7 | Cc1oc2ccccc2c1C(=O)CSc1nc(O)c2nc[nH]c2n1 [Entry 164, 2-[(6-hydroxy-9H-purin-2-yl)thio]-1-(2-methyl-1-benzofuran-3-yl)ethanone] | 1.126 | 1.293
8 | COc1cc(-c2nc(C(N)=O)c3[nH]c(=O)n(CC4CCCO4)c3n2)ccc1O (stereo not drawn) [Entry 165, 2-(4-hydroxy-3-methoxyphenyl)-8-oxo-9-(tetrahydrofuran-2-ylmethyl)-8,9-dihydro-7H-purine-6-carboxamide] | 1.224 | 1.689
9 | COCc1c(Br)c(C)nc2sc3c(=O)[nH]nnc3c12 [Entry 166, 8-bromo-9-(methoxymethyl)-7-methylpyrido[3′,2′:4,5]thieno[3,2-d][1,2,3]triazin-4(3H)-one] | 1.128 | 1.321
10 | COCc1c(Br)c(C)nc2sc3c(=O)n(-c4ccccc4C(=O)OC)nnc3c12 [Entry 167, methyl 2-(8-bromo-9-(methoxymethyl)-7-methyl-4-oxopyrido[3′,2′:4,5]thieno[3,2-d][1,2,3]triazin-3(4H)-yl)benzoate] | 1.413 | 1.995
11 | Cc1c(C(=O)N2CCCC2)oc2c1-c1nn(CC(=O)NCCCOC(C)C)cc1CC2 [Entry 168, 2-[8-methyl-7-(pyrrolidine-1-carbonyl)-4,5-dihydrofuro[2,3-g]indazol-2-yl]-N-(3-propan-2-yloxypropyl)acetamide] | 1.452 | 1.678
12 | CCOCCCNC(=O)Cn1cc2c(n1)-c1c(oc(C(=O)N3CCCC3)c1C)CC2 [Entry 169, N-(3-ethoxypropyl)-2-[8-methyl-7-(pyrrolidine-1-carbonyl)-4,5-dihydrofuro[2,3-g]indazol-2-yl]acetamide] | 1.455 | 1.879
13 | Cc1ccccc1CNC(=O)Cn1cc2c(n1)-c1c(oc(C(=O)N3CCCC3)c1C)CC2 [Entry 170, N-[(2-methylphenyl)methyl]-2-[8-methyl-7-(pyrrolidine-1-carbonyl)-4,5-dihydrofuro[2,3-g]indazol-2-yl]acetamide] | 1.302 | 1.816
14 | COCCNC(=O)Cn1cc2c(n1)-c1c(oc(C(=O)N3CCCC3)c1C)CC2 [Entry 171, N-(2-methoxyethyl)-2-[8-methyl-7-(pyrrolidine-1-carbonyl)-4,5-dihydrofuro[2,3-g]indazol-2-yl]acetamide] | 1.374 | 1.777
15 | Cc1c(C(=O)N2CCCC2)oc2c1-c1nn(CC(=O)NCc3ccccc3Br)cc1CC2 [Entry 172, N-[(2-bromophenyl)methyl]-2-[8-methyl-7-(pyrrolidine-1-carbonyl)-4,5-dihydrofuro[2,3-g]indazol-2-yl]acetamide] | 1.296 | 1.616

Results, then the compound that gave them:

Row | Fold-change determined at compound concentration 33 μM | Fold-change determined at compound concentration 100 μM | Compound
16 | 1.19 | 1.657 | CCOC(=O)c1cccc(NC(=O)c2oc3c(c2C)-c2nn(CC)cc2CC3)c1 [Entry 173, ethyl 3-[(2-ethyl-8-methyl-4,5-dihydrofuro[2,3-g]indazole-7-carbonyl)amino]benzoate]
17 | 1.278 | 1.87 | Cc1ccc(Cl)cc1NC(=O)c1oc2c(c1C)-c1[nH]ncc1CC2 [Entry 174, N-(5-chloro-2-methylphenyl)-8-methyl-4,5-dihydro-1H-furo[2,3-g]indazole-7-carboxamide]
18 | 1.094 | 1.352 | Cc1c(C(=O)NCc2ccccc2)oc2c1-c1[nH]ncc1CC2 [Entry 175, N-benzyl-8-methyl-4,5-dihydro-1H-furo[2,3-g]indazole-7-carboxamide]
19 | 1.151 | 1.563 | Cc1c2c(=O)n(-c3nc4ccccc4s3)[nH]c2cc(=O)n1CCc1cnc[nH]1 [Entry 176, 5-(2-(1H-imidazol-5-yl)ethyl)-2-(benzo[d]thiazol-2-yl)-4-methyl-1,2-dihydro-3H-pyrazolo[4,3-c]pyridine-3,6(5H)-dione]
20 | 1.053 | 1.4 | Cc1c2c(=O)n(-c3nc4ccccc4s3)[nH]c2cc(=O)n1Cc1ccc(C(=O)O)cc1 [Entry 177, 4-[[2-(1,3-benzothiazol-2-yl)-4-methyl-3,6-dioxo-1H-pyrazolo[4,3-c]pyridin-5-yl]methyl]benzoic acid]
21 | 1.217 | 1.633 | COc1ccc(-c2n[nH]c3nc(-c4ccc(O)c(O)c4)cc(C(=O)O)c23)cc1 [Entry 178, 6-(3,4-dihydroxyphenyl)-3-(4-methoxyphenyl)-1H-pyrazolo[3,4-b]pyridine-4-carboxylic acid]
22 | 1.112 | 1.309 | COc1ccc(-c2[nH]nc3nc(-c4cc(Br)ccc4OC)cc(C(=O)O)c23)cc1 [Entry 179, 6-(5-bromo-2-methoxyphenyl)-3-(4-methoxyphenyl)-2H-pyrazolo[3,4-b]pyridine-4-carboxylic acid]
23 | 1.303 | 1.736 | Cc1ccc(-c2n[nH]c3nc(-c4ccc(O)c(O)c4)cc(C(=O)O)c23)cc1 [Entry 180, 6-(3,4-dihydroxyphenyl)-3-(p-tolyl)-1H-pyrazolo[3,4-b]pyridine-4-carboxylic acid]
24 | 1.124 | 1.272 | CCOc1cc(-c2cc(C(=O)O)c3c(-c4ccccc4)[nH]nc3n2)ccc1O [Entry 181, 6-(3-ethoxy-4-hydroxyphenyl)-3-phenyl-2H-pyrazolo[3,4-b]pyridine-4-carboxylic acid]
25 | 1.1781 | 1.35 | O=C(O)c1cc(-c2ccc(C(F)(F)F)cc2)nc2n[nH]c(-c3ccccc3)c12 [Entry 182, 3-phenyl-6-[4-(trifluoromethyl)phenyl]-2H-pyrazolo[3,4-b]pyridine-4-carboxylic acid]
26 | 1.152 | 1.346 | COc1ccc(-c2n[nH]c3nc(-c4cc(OC)c(OC)c(OC)c4)cc(C(=O)O)c23)cc1 [Entry 183, 3-(4-methoxyphenyl)-6-(3,4,5-trimethoxyphenyl)-1H-pyrazolo[3,4-b]pyridine-4-carboxylic acid]
27 | 1.245 | 1.294 | CCOC(=O)c1ccc(NC(=O)CCc2c(C)nc3c(c(C)nn3C)c2C)cc1 [Entry 184, ethyl 4-[3-(1,3,4,6-tetramethylpyrazolo[3,4-b]pyridin-5-yl)propanoylamino]benzoate]
28 | 1.163 | 1.531 | CCCCN(CCCC)CCCNC(=O)c1ccc2c(c1)sc1nc(-c3ccc(OC)cc3)cn12 [Entry 186, N-[3-(dibutylamino)propyl]-2-(4-methoxyphenyl)imidazo[2,1-b][1,3]benzothiazole-7-carboxamide]
29 | 1.108 | 1.262 | Cc1ccc(-c2cn3c(n2)sc2ccc(C(=O)NCCCN4CCCCCC4)cc23)cc1 [Entry 187, N-[3-(azepan-1-yl)propyl]-2-(4-methylphenyl)imidazo[2,1-b][1,3]benzothiazole-6-carboxamide]
30 | 1.089 | 1.29 | COC(=O)c1cnn2c(=O)cc(CS(=O)(=O)c3ccc(C)cc3C)[nH]c12 [Entry 188, Methyl 5-{[(2,4-dimethylphenyl)sulfonyl]methyl}-7-oxo-4,7-dihydropyrazolo[1,5-a]pyrimidine-3-carboxylate]
